Results reported in PubChem BioAssay (NCI).
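1) Cells in 96-well plates. 2) Compound, 48 h, 5 concentrations. 3) Linear interpolation between surrounding doses. 4) Unreached endpoint = highest concentration. GI50 marks 50% less growth. TGI is the concentration that stops growth completely.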 Where a SMILES comes first, the peptide text is derived from it. The star is where a group is joined. Boc = CC(C)(C)OC(=O)*

Key:
Assay in all cases: growth of human tumour cells (NCI), 48 h
DU-145 prostate = system: DU-145 prostate
HOP-62 NSCLC = system: HOP-62 NSCLC
UACC-257 melanoma = system: UACC-257 melanoma
OVCAR-3 ovarian = system: OVCAR-3 ovarian
M14 melanoma = system: M14 melanoma
HS 578T breast = system: HS 578T breast
SNB-19 CNS = system: SNB-19 CNS
HT29 colon = system: HT29 colon
TK-10 renal = system: TK-10 renal
IGROV1 ovarian = system: IGROV1 ovarian

Compound	TGI (DU-145 prostate) [µM]	TGI (HOP-62 NSCLC) [µM]	TGI (UACC-257 melanoma) [µM]	TGI (OVCAR-3 ovarian) [µM]	TGI (M14 melanoma) [µM]	TGI (HS 578T breast) [µM]	TGI (SNB-19 CNS) [µM]	TGI (HT29 colon) [µM]	TGI (TK-10 renal) [µM]	TGI (IGROV1 ovarian) [µM]	GI50 (DU-145 prostate) [µM]	GI50 (HOP-62 NSCLC) [µM]	GI50 (UACC-257 melanoma) [µM]	GI50 (OVCAR-3 ovarian) [µM]	GI50 (M14 melanoma) [µM]	GI50 (HS 578T breast) [µM]	GI50 (SNB-19 CNS) [µM]	GI50 (HT29 colon) [µM]	GI50 (TK-10 renal) [µM]	GI50 (IGROV1 ovarian) [µM]
CC(C)(C)OC(=O)NCC(=O)NCC(=O)NCC(=O)NCC(=O)O (Boc-GGGG-OH)	> 100	> 100	> 100	> 100	> 100	> 100	> 100	> 100	> 100	> 100	–	–	–	–	–	–	–	–	–	–
Cc1ccccc1C(O)(c1nccn1C)c1nccn1C	> 100	> 100	> 100	> 100	> 100	> 100	> 100	> 100	> 100	> 100	–	–	–	–	–	–	–	–	–	–
CN(C)Cc1cc(C(=O)/C=C/c2ccc(O)cc2)cc(CN(C)C)c1O	> 100	> 100	> 100	56.2	> 100	> 100	> 100	> 100	> 100	> 100	–	–	–	–	–	–	–	–	–	–
COc1ccc2cc(-c3ccc(-c4ccc(C(=N)N)s4)s3)ccc2c1	3.32	3.68	35.4	6.07	15.7	50	> 100	3.27	29.2	5.45	1.7	1.78	19.6	2.42	4	16.6	2.13	1.72	14.2	2.27
O=C1C[C@H](Sc2ccccc2)C2(OCCO2)[C@@H](Sc2ccccc2)C1	14.1	13.6	4.51	7.94	6.52	5.85	> 43.6	3.7	6.96	3.49	–	–	–	–	–	–	–	–	–	–
c1ccc2c(c1)NC(C1OC3CCCN3C1C1Nc3ccccc3S1)S2 (stereo not given)	> 100	> 100	> 100	> 100	> 100	> 100	> 100	> 100	> 100	> 100	–	–	–	–	–	–	–	–	–	–
COc1nc(C#CCC(C)O)nc(OC)n1 (stereo not given)	52.8	36.8	> 100	47.9	39.6	72	> 100	> 100	57.7	42.3	–	–	–	–	–	–	–	–	–	–
COC(=O)[C@]12CC[C@H]3CN(C(=O)OCc4ccccc4)[C@H]([C@H]31)[C@H](c1ccco1)N2S(=O)(=O)c1ccc(C)cc1	> 100	74.2	50.9	40.4	44.6	> 100	> 100	58.7	90.2	57.1	–	–	–	–	–	–	–	–	–	–
COc1ccc(C(OCC2OC(n3cc(C)c(=O)[nH]c3=O)CC2n2cc(Cn3cc(F)c(=O)[nH]c3=O)nn2)(c2ccccc2)c2ccccc2)cc1 (stereo not given)	27.1	25.7	28	19.6	27.9	> 100	22.8	> 100	33.9	36.4	–	–	–	–	–	–	–	–	–	–
C=CCO/N=C/c1cc(NC(=S)c2ccoc2C)ccc1Cl	27.8	29.5	34	24.3	37.9	64.4	21.2	26.2	42.2	32.2	–	–	–	–	–	–	–	–	–	–
COc1ccc(CC(O)CN2CCOCC2)cc1 (stereo not given)	> 100	> 100	> 100	> 100	> 100	> 100	> 100	> 100	> 100	> 100	–	–	–	–	–	–	–	–	–	–
c1ccc2sc(SCSc3nc4ccccc4s3)nc2c1	> 100	> 100	> 100	> 100	> 100	> 100	> 100	> 100	> 100	> 100	–	–	–	–	–	–	–	–	–	–
COc1cc(C2CC(C)(Nc3ccccc3)Oc3cc4c(cc32)OCO4)cc(OC)c1OC (stereo not given)	6.13	> 55.1	> 85.2	3.52	> 63.1	> 100	> 100	0.619	> 100	> 59.8	–	–	–	–	–	–	–	–	–	–
Brc1cccc(Nc2nc(-c3cccs3)nc3ccc(Br)cc23)c1	> 100	> 100	74	82.1	71.3	> 100	98.7	53	88	> 100	–	–	–	–	–	–	–	–	–	–
Cc1csc(-c2cn(C)c3c2C(=O)C(N)=CC3=O)n1	> 100	98.5	32.6	> 67.3	> 47.4	> 80.2	> 100	> 67.1	> 100	13.4	–	–	–	–	–	–	–	–	–	–
CCCCC1c2c([nH]c3ccccc23)C2C(=O)N(c3ccc(OC)cc3)C(=O)C2C1CCC (stereo not given)	> 10	> 10	9.62	6.26	8.53	4.81	> 10	8.52	> 10	> 10	–	–	–	–	–	–	–	–	–	–
